Test results published in patent US10792311B2, “Stimulation of ovarian follicle development and oocyte maturation” (The Board of Trustees of the Leland Stanford Junior …, priority 2011, dated 2020).

How the values were obtained:
[1] = tested on: preantral follicles; test: Preantral follicle culture; assay type: cell-based, mice
Text: CNP treatment promoted the growth of preantral follicles and cultured ovarian explants: Preantral follicles (125-135 um in diameter) were isolated from ovaries of mice at day 13 of age and treated with different hormones for four days with daily monitoring of follicle diameters. […] In contrast, treatment with ANP was ineffective.
Dissection follicles of different sizes and culturing of preantral follicles: For RT-PCR analyses, early secondary follicles of 90-140 um in diameters were isolated from mice at day 13 of age whereas antral follicles (300-400 um in diameter) were isolated from prepubertal mice at day 23 of age. Preovulatory follicles (500-600 um in diameter) were isolated from prepubertal mice treated with eCG (5 IU). For follicle cultures, preantral follicles (125-145 um in diameter) were isolated from mice at day 13 of age and cultured individually in 96 well plates containing alpha-MEM (100 ul/well) with penicillin and streptomycin together with insulin, transferrin and selenium. […] The media were changed every two days and follicle growth was monitored daily by measuring follicle diameters.

[2] = short term infusion in humans, supraphysiological levels in plasma; cited from earlier work
[3] = tested on: granulosa cells from mice at day 21 of age; test: cGMP and cAMP production by cultured granulosa cells; assay type: cell-based; conditions: day 21 mice, 2 h
Method: (§1) Stimulation of cGMP, but not cAMP, production by cultured ovarian somatic cells: Because the NPRB receptors mediated cGMP production stimulated by the CNP ligand, we isolated somatic cells from ovaries of mice at day 13 of age and granulosa cells from mice at day 21 of age before treatment with increasing doses of CNP or a high dose (30 nM) of ANP for 2 h. Media content of both cGMP and cAMP were determined by RIA.

[4] = Observation of abnormalities after 4 days of CNP treatment; assay type: in vivo, mice; conditions: present dosages and injection protocols
Text: CNP acts exclusively through NPRB whereas ANP and BNP act through NPRA. […] The apparent lack of side effects using the present low doses of CNP is consistent with earlier reports showing minimal cardiac and renal actions using physiological concentrations of CNP.

[5] = tested on: somatic cells from ovaries of mice at day 13 of age; test: cGMP and cAMP production by cultured somatic cells; assay type: cell-based; conditions: day 13 mice, 2 h
Method: as §1

[6] = tested on: ovaries from day 10 mice; test: Ovarian explant cultures treated with CNP and/or FSH; assay type: cell-based; conditions: 4 days culture
Method: Ovarian explant cultures: Ovaries from day 10 mice were placed on culture plate inserts (Millipore, Bedford, Mass.) and cultured in 400 μl of DMEM/F12 containing 0.1% BSA (Sigma), 0.1% Albumax II, insulin-transferrin-selenium, 0.05 mg/ml L-ascorbic acid and penicillin-streptomycin under the membrane insert to cover ovaries with a thin layer of medium. […] Some explants were also treated with a pan-specific protein kinase G inhibitor, Rp-8-Br-PET-cGMPS (BioLog, Bremen, Germany). At the end of culture, ovaries were fixed in Bouin's solution, paraffin embedded, and cut into continuous sections before staining with hematoxylin and eosin.

[7] = tested on: human ovarian cortical fragments; test: Xenografts of human ovarian cortical fragments; assay type: in vivo
[8] = tested on: preantral follicles; test: In vivo treatment of juvenile mice (day 13) with CNP followed by eCG/hCG; conditions: day 13 mice
Method: In vivo treatment with CNP promoted follicle development for ovulation and subsequent pregnancy in juvenile, prepubertal, and adult mice: To test the ability CNP to stimulate preantral follicle development in vivo, juvenile mice at day 13 of age were treated i.p. with CNP daily for 4 days. This was followed by a single i.p. injection of eCG for 2 more days before determination of ovarian weight. […] Some of these animals were further treated with an ovulatory dose of hCG to check ovulation efficiency.
(§2) In vivo treatment with CNP, ovulation, and pregnancy: Infantile mice at day 13 of age were treated with CNP (20 ug/kg body weight) i.p. daily for 4 days. This was followed by a single injection of eCG (5 IU) for 2 days to stimulate penultimate follicle maturation before collection of ovaries for weighting and histological analyses. Some animals were further treated with an ovulatory dose (5 IU) of hCG and oocytes in oviducts were monitored at 16 h later to evaluate ovulation efficiency. To test the effects of CNP on early antral follicle growth, prepubertal mice at day 21 of age were treated intraperitoneally with CNP (50 ug/kg body weight) daily for four days to stimulate preovulatory follicle development, followed by the injection of an ovulatory dose (2.5 IU) of hCG. At 16 h later, number of ovulated oocytes was determined. Mature oocytes obtained from CNP-pretreated animals were used for in vitro fertilization. Sperm from CD1 male mice (10-12 weeks old) were collected into human tubal fluid media (Millipore) and incubated for 1 h at 37 C. Oocytes were fertilized with sperm (2-3×10^5/ml) for 6 h and inseminated oocytes were transfer into KSOM-AA medium (Millipore) to allow development into blastocysts. Some of the CNP-pretreated females were mated with fertile males for the monitoring of pregnancy and the delivery of pups.

[9] = tested on: early antral follicles; test: In vivo treatment of prepubertal mice (day 21) with CNP followed by hCG, in vitro fertilization, mating
Method: To further test the ability of CNP to stimulate the development of early antral follicles to the preovulatory stage, prepubertal mice at day 21 days of age were treated i.p. with CNP daily for 4 days followed by a single injection of an ovulatory dose of hCG. At […] after hCG treatment, the number of ovulated mature oocytes were determined.
We further tested if ovulated oocytes retrieved after CNP pretreatment are capable of being fertilized. Oocytes were obtained from oviducts of CNP-pretreated prepubertal mice after hCG treatment and used for in vitro fertilization. We used oocytes obtained from prepubertal mice treated sequential with eCG (2 days) and hCG (16 h) as controls. […] Some prepubertal females pretreated with CNP followed by hCG to induce ovulation were mated with fertile males.
as §2

## CNP: 22 amino acid peptide cleaved from NPPC precursor; activates natriuretic peptide receptor-B (NPRB)
[1]; FSH 25 ng/ml
  Follicle growth, combined treatment with CNP and FSH: additive increases in follicle growth
[1]; four days culture
  Follicle size compared with 8-bromo-cGMP: comparable
[1]; preantral follicles of day 13 mice, four days
  Follicle size (diameter): dose- and time-dependent increases in follicle size
[2]
  Vasodepressor or natriuretic action: not vasodepressor or natriuretic
[3]
  cAMP production: no changes in cAMP production
[3]; ANP 30 nM
  Media content of cGMP: dose-dependent increases in media content of cGMP
[4]
  Abnormalities following treatment: did not observe abnormalities
[5]
  cAMP production: no changes in cAMP production
[5]; ANP 30 nM
  Media content of cGMP: dose-dependent increases in media content of cGMP
[6]
  Development of preantral follicles (histological analyses): promoted the development of preantral follicles
[6]; combined with FSH
  Ovarian weights of explants, both CNP and FSH included: additive increases
[6]; day 10 ovaries
  Ovarian weights of explants: dose-dependent increases in ovarian weights
[7]
  Follicle growth as revealed by follicle counting: stimulated follicle growth
[8]; CNP, then eCG and hCG
  Ovulated oocytes in the oviducts vs controls: higher numbers of ovulated oocyte
[8]; i.p. 20 ug/kg daily for 4 days, then eCG 2 days
  Increase in ovarian weight: 56%
[8]; i.p. daily for 4 days, then eCG
  Development of antral follicles (histological analyses): increases in the development of antral follicles
[9]; day 21 mice, 18 h after hCG
  Number of ovulated oocytes induced by hCG vs saline: an increase in the number of ovulated oocytes
[9]; day 21 mice, i.p. 50 ug/kg daily for 4 days, then hCG
  Ovarian weight: increased ovarian weight
[9]; in vitro fertilization of oocytes of CNP-pretreated prepubertal mice
  Development of fertilized oocytes to the blastocyst stage vs control oocytes (eCG-hCG): same efficiency
[9]; prepubertal females pretreated with CNP followed by hCG
  Pregnancy after mating with fertile males: Successful pregnancy was demonstrated followed by the delivery of healthy pups
